# Source: US6358885B1, “Substituted phenylheterocyclic herbicides” (Mississippi State University, priority 1992, dated 2002)
# Assays:
# Assay in all cases: Test F preemergence/postemergence greenhouse plant response rating 0 to 100
# Conditions in all cases: 0 to 100 scale
# sugar beet = assay type: in vivo, Beta vulgaris cv. ‘USl’
# Text: (§1) Compounds evaluated in this test were formulated in a non-phytoxic solvent and applied to the soil surface before plant seedlings emerged (preemergence application) and to plants that were in the one-to-four leaf stage (postemergence application). A sandy loam soil was used for the preemergence test while a mixture of sandy loam soil and greenhouse potting mix in a 60:40 ratio was used for the postemergence test. Test compounds were applied within approximately one day after planting seeds for the preemergence test. Plantings of these crops and weed species were adjusted to produce plants of appropriate size for the postemergence test. All plant species were grown using normal greenhouse practices. Crop and weed species include winter barley (Hordeum vulgare cv. ‘Igri’), blackgrass (Alopecurus myosuroides), chickweed (Stellaria media), downy brome (Bromus tectorum), field violet (Viola arvensis), galium (Galium aparine), green foxtail (Setaria viridis), kochia (Kochia scoparia), lambsquarters (Chenopodium album), speedwell (Veronica persica), rape (Brassica napus), ryegrass (Lolium multiflorum), sugar beet (Beta vulgaris cv. ‘USl’), sunflower (Helianthus annuus cv. ‘Russian Giant’), spring wheat (Triticum aestivum cv. ‘ERA’), winter wheat (Triticum aestivum cv. ‘Talent’), wild buckwheat (Polygonum convolvulus), wild mustard (Sinapis arvensis), wild oat (Avena fatua), and wild radish (Raphanus raphanistrum). Blackgrass, galium and wild oat were treated at two growth stages. […] Treated plants and untreated controls were maintained in a greenhouse for approximately 21 to 28 days, after which all treated plants were compared to untreated controls and visually evaluated. […] A dash response (-) means no test result.
# ryegrass = assay type: in vivo, Lolium multiflorum
# Text: as §1
# sunflower = assay type: in vivo, Helianthus annuus cv. ‘Russian Giant’
# Text: as §1
# green foxtail = assay type: in vivo, Setaria viridis
# Text: as §1
# field violet = assay type: in vivo, Viola arvensis
# Text: as §1
# rape = assay type: in vivo, Brassica napus
# Text: as §1
compound,measurement,setting,value
C#CCOc1cc(-c2nn3c(c2Br)CCCC3)c(F)cc1Cl [Compound 26],Sugar beet plant response rating,"sugar beet; POSTEMERGENCE, Rate 4 g/ha",100
same,Sugar beet plant response rating,"sugar beet; POSTEMERGENCE, Rate 8 g/ha",100
same,Sugar beet plant response rating,"sugar beet; POSTEMERGENCE, Rate 16 g/ha",100
same,Sugar beet plant response rating,"sugar beet; POSTEMERGENCE, Rate 32 g/ha",100
same,Sugar beet plant response rating,"sugar beet; POSTEMERGENCE, Rate 64 g/ha",100
same,Sugar beet plant response rating,"sugar beet; POSTEMERGENCE, Rate 125 g/ha",100
same,Sugar beet plant response rating,"sugar beet; POSTEMERGENCE, Rate 250 g/ha",100
same,Sugar beet plant response rating,"sugar beet; PREEMERGENCE, Rate 4 g/ha",0
same,Sugar beet plant response rating,"sugar beet; PREEMERGENCE, Rate 8 g/ha",50
same,Sugar beet plant response rating,"sugar beet; PREEMERGENCE, Rate 16 g/ha",60
same,Sugar beet plant response rating,"sugar beet; PREEMERGENCE, Rate 32 g/ha",70
same,Sugar beet plant response rating,"sugar beet; PREEMERGENCE, Rate 64 g/ha",100
same,Sugar beet plant response rating,"sugar beet; PREEMERGENCE, Rate 125 g/ha",100
same,Sugar beet plant response rating,"sugar beet; PREEMERGENCE, Rate 250 g/ha",100
same,Ryegrass plant response rating,"ryegrass; POSTEMERGENCE, Rate 4 g/ha",0
same,Ryegrass plant response rating,"ryegrass; POSTEMERGENCE, Rate 8 g/ha",0
same,Ryegrass plant response rating,"ryegrass; POSTEMERGENCE, Rate 16 g/ha",0
same,Ryegrass plant response rating,"ryegrass; POSTEMERGENCE, Rate 32 g/ha",5
same,Ryegrass plant response rating,"ryegrass; POSTEMERGENCE, Rate 64 g/ha",20
same,Ryegrass plant response rating,"ryegrass; POSTEMERGENCE, Rate 125 g/ha",30
same,Ryegrass plant response rating,"ryegrass; POSTEMERGENCE, Rate 250 g/ha",55
same,Ryegrass plant response rating,"ryegrass; PREEMERGENCE, Rate 4 g/ha",0
same,Ryegrass plant response rating,"ryegrass; PREEMERGENCE, Rate 8 g/ha",0
same,Ryegrass plant response rating,"ryegrass; PREEMERGENCE, Rate 16 g/ha",0
same,Ryegrass plant response rating,"ryegrass; PREEMERGENCE, Rate 32 g/ha",20
same,Ryegrass plant response rating,"ryegrass; PREEMERGENCE, Rate 64 g/ha",40
same,Ryegrass plant response rating,"ryegrass; PREEMERGENCE, Rate 125 g/ha",60
same,Ryegrass plant response rating,"ryegrass; PREEMERGENCE, Rate 250 g/ha",80
same,Sunflower plant response rating,"sunflower; POSTEMERGENCE, Rate 4 g/ha",0
same,Sunflower plant response rating,"sunflower; POSTEMERGENCE, Rate 8 g/ha",0
same,Sunflower plant response rating,"sunflower; POSTEMERGENCE, Rate 16 g/ha",0
same,Sunflower plant response rating,"sunflower; POSTEMERGENCE, Rate 32 g/ha",20
same,Sunflower plant response rating,"sunflower; POSTEMERGENCE, Rate 64 g/ha",60
same,Sunflower plant response rating,"sunflower; POSTEMERGENCE, Rate 125 g/ha",100
same,Sunflower plant response rating,"sunflower; POSTEMERGENCE, Rate 250 g/ha",60
same,Sunflower plant response rating,"sunflower; PREEMERGENCE, Rate 4 g/ha",0
same,Sunflower plant response rating,"sunflower; PREEMERGENCE, Rate 8 g/ha",0
same,Sunflower plant response rating,"sunflower; PREEMERGENCE, Rate 16 g/ha",0
same,Sunflower plant response rating,"sunflower; PREEMERGENCE, Rate 32 g/ha",0
same,Sunflower plant response rating,"sunflower; PREEMERGENCE, Rate 64 g/ha",0
same,Sunflower plant response rating,"sunflower; PREEMERGENCE, Rate 125 g/ha",10
same,Sunflower plant response rating,"sunflower; PREEMERGENCE, Rate 250 g/ha",60
same,Green foxtail plant response rating,"green foxtail; POSTEMERGENCE, Rate 4 g/ha",0
same,Green foxtail plant response rating,"green foxtail; POSTEMERGENCE, Rate 8 g/ha",0
same,Green foxtail plant response rating,"green foxtail; POSTEMERGENCE, Rate 16 g/ha",50
same,Green foxtail plant response rating,"green foxtail; POSTEMERGENCE, Rate 32 g/ha",60
same,Green foxtail plant response rating,"green foxtail; POSTEMERGENCE, Rate 64 g/ha",70
same,Green foxtail plant response rating,"green foxtail; POSTEMERGENCE, Rate 125 g/ha",80
same,Green foxtail plant response rating,"green foxtail; POSTEMERGENCE, Rate 250 g/ha",50
same,Green foxtail plant response rating,"green foxtail; PREEMERGENCE, Rate 4 g/ha",0
same,Green foxtail plant response rating,"green foxtail; PREEMERGENCE, Rate 8 g/ha",0
same,Green foxtail plant response rating,"green foxtail; PREEMERGENCE, Rate 16 g/ha",20
same,Green foxtail plant response rating,"green foxtail; PREEMERGENCE, Rate 32 g/ha",50
same,Green foxtail plant response rating,"green foxtail; PREEMERGENCE, Rate 64 g/ha",100
same,Green foxtail plant response rating,"green foxtail; PREEMERGENCE, Rate 125 g/ha",100
same,Green foxtail plant response rating,"green foxtail; PREEMERGENCE, Rate 250 g/ha",100
same,Field violet plant response rating,"field violet; POSTEMERGENCE, Rate 4 g/ha",100
same,Field violet plant response rating,"field violet; POSTEMERGENCE, Rate 8 g/ha",100
same,Field violet plant response rating,"field violet; POSTEMERGENCE, Rate 16 g/ha",100
same,Field violet plant response rating,"field violet; POSTEMERGENCE, Rate 32 g/ha",100
same,Field violet plant response rating,"field violet; POSTEMERGENCE, Rate 64 g/ha",100
same,Field violet plant response rating,"field violet; POSTEMERGENCE, Rate 125 g/ha",100
same,Field violet plant response rating,"field violet; POSTEMERGENCE, Rate 250 g/ha",100
same,Field violet plant response rating,"field violet; PREEMERGENCE, Rate 4 g/ha",0
same,Field violet plant response rating,"field violet; PREEMERGENCE, Rate 8 g/ha",0
same,Field violet plant response rating,"field violet; PREEMERGENCE, Rate 16 g/ha",70
same,Field violet plant response rating,"field violet; PREEMERGENCE, Rate 32 g/ha",100
same,Field violet plant response rating,"field violet; PREEMERGENCE, Rate 64 g/ha",100
same,Field violet plant response rating,"field violet; PREEMERGENCE, Rate 125 g/ha",100
same,Field violet plant response rating,"field violet; PREEMERGENCE, Rate 250 g/ha",100
same,Rape plant response rating,"rape; POSTEMERGENCE, Rate 4 g/ha",0
same,Rape plant response rating,"rape; POSTEMERGENCE, Rate 8 g/ha",0
same,Rape plant response rating,"rape; POSTEMERGENCE, Rate 16 g/ha",50
same,Rape plant response rating,"rape; POSTEMERGENCE, Rate 32 g/ha",100
same,Rape plant response rating,"rape; POSTEMERGENCE, Rate 64 g/ha",100
same,Rape plant response rating,"rape; POSTEMERGENCE, Rate 125 g/ha",100
same,Rape plant response rating,"rape; POSTEMERGENCE, Rate 250 g/ha",100
same,Rape plant response rating,"rape; PREEMERGENCE, Rate 4 g/ha",0
same,Rape plant response rating,"rape; PREEMERGENCE, Rate 8 g/ha",0
same,Rape plant response rating,"rape; PREEMERGENCE, Rate 16 g/ha",0
same,Rape plant response rating,"rape; PREEMERGENCE, Rate 32 g/ha",20
same,Rape plant response rating,"rape; PREEMERGENCE, Rate 64 g/ha",60
same,Rape plant response rating,"rape; PREEMERGENCE, Rate 125 g/ha",80
same,Rape plant response rating,"rape; PREEMERGENCE, Rate 250 g/ha",100
CCOC(=O)COc1cc(-c2nn3c(c2Cl)CCCC3)c(F)cc1Cl [Compound 42],Sugar beet plant response rating,"sugar beet; POSTEMERGENCE, Rate 2 g/ha",100
same,Sugar beet plant response rating,"sugar beet; POSTEMERGENCE, Rate 8 g/ha",100
same,Sugar beet plant response rating,"sugar beet; POSTEMERGENCE, Rate 16 g/ha",100
same,Sugar beet plant response rating,"sugar beet; POSTEMERGENCE, Rate 32 g/ha",100
same,Ryegrass plant response rating,"ryegrass; POSTEMERGENCE, Rate 2 g/ha",0
same,Ryegrass plant response rating,"ryegrass; POSTEMERGENCE, Rate 4 g/ha",0
same,Ryegrass plant response rating,"ryegrass; POSTEMERGENCE, Rate 8 g/ha",0
same,Ryegrass plant response rating,"ryegrass; POSTEMERGENCE, Rate 16 g/ha",0
same,Ryegrass plant response rating,"ryegrass; POSTEMERGENCE, Rate 32 g/ha",30
same,Sunflower plant response rating,"sunflower; POSTEMERGENCE, Rate 2 g/ha",0
same,Sunflower plant response rating,"sunflower; POSTEMERGENCE, Rate 4 g/ha",20
same,Sunflower plant response rating,"sunflower; POSTEMERGENCE, Rate 8 g/ha",30
same,Sunflower plant response rating,"sunflower; POSTEMERGENCE, Rate 16 g/ha",60
same,Sunflower plant response rating,"sunflower; POSTEMERGENCE, Rate 32 g/ha",100
same,Green foxtail plant response rating,"green foxtail; POSTEMERGENCE, Rate 2 g/ha",0
same,Green foxtail plant response rating,"green foxtail; POSTEMERGENCE, Rate 4 g/ha",0
same,Green foxtail plant response rating,"green foxtail; POSTEMERGENCE, Rate 8 g/ha",0
same,Green foxtail plant response rating,"green foxtail; POSTEMERGENCE, Rate 16 g/ha",10
same,Green foxtail plant response rating,"green foxtail; POSTEMERGENCE, Rate 32 g/ha",60
same,Field violet plant response rating,"field violet; POSTEMERGENCE, Rate 2 g/ha",0
same,Field violet plant response rating,"field violet; POSTEMERGENCE, Rate 4 g/ha",0
same,Field violet plant response rating,"field violet; POSTEMERGENCE, Rate 8 g/ha",10
same,Field violet plant response rating,"field violet; POSTEMERGENCE, Rate 16 g/ha",70
same,Field violet plant response rating,"field violet; POSTEMERGENCE, Rate 32 g/ha",80
same,Rape plant response rating,"rape; POSTEMERGENCE, Rate 2 g/ha",0
same,Rape plant response rating,"rape; POSTEMERGENCE, Rate 4 g/ha",20
same,Rape plant response rating,"rape; POSTEMERGENCE, Rate 8 g/ha",40
same,Rape plant response rating,"rape; POSTEMERGENCE, Rate 16 g/ha",70
same,Rape plant response rating,"rape; POSTEMERGENCE, Rate 32 g/ha",100
